From PMC11058299, “Synthesis, molecular docking evaluation for LOX and COX-2 inhibition and determination of in-vivo analgesic potentials of aurone derivatives” (Heliyon, 2024)
Several values for one entry are separate records, joined by “and”; a condition that tells them apart may be missing. Equal entries are not always repeated.

Key:
[1] = test system: formalin induced paw licking; experiment: Formalin induced paw licking test; assay type: in vivo; conditions: 20 mg/kg oral, mice
Method: The animals were divided into various groups I-XVI consisting of 8 experimental animals for control, sample compounds (WE-1 to WE-7) and standard. Group I: Control, Group II-XV: WE-1 to WE-7 (sample compounds) at dose of 10 mg/kg and 20 mg/kg and Group XVI: Standard. The control (Group I) was given normal saline. Group II-XV received 10 mg/kg and 20 mg/kg of test sample (WE-1 to WE-7). […] The acute peripheral and centrally mediated analgesic activity of aurone derivatives was evaluated using the formalin-induced pain method, as described. Samples compounds (WE-1 to WE-7) and a standard (Indomethacin 10 mg) were orally administered 30 min prior to 20 μl of 1 % formalin injection (prepared in 0.9 % saline) in right hind paw of the mice and immediately placed in a clear box to observe the animal's reaction. Paw licking or biting within 0–5 min indicated Phase 1, while animal reactions observed between 15 and 30 min indicated Phase 2. The number of paw licking or biting events was compared to the control group, and the percentage of inhibition was calculated.

[2] = test system: acetic acid induced writhing; experiment: Acetic acid induced writhing test; assay type: in vivo; conditions: mice; for number of writhing: mean ± SEM, control 61.22 ± 3.90
Method: The animals were divided into various groups I-XVI consisting of 8 experimental animals for control, sample compounds (WE-1 to WE-7) and standard. Group I: Control, Group II-XV: WE-1 to WE-7 (sample compounds) at dose of 10 mg/kg and 20 mg/kg and Group XVI: Standard. The control (Group I) was given normal saline. Group II-XV received 10 mg/kg and 20 mg/kg of test sample (WE-1 to WE-7). […] The writhing test, following a previously established method, was conducted to assess the analgesic potential of the aurone derivatives. The mice were orally administered samples compounds (WE-1 to WE-7)and standard (Diclofenac sodium 10 mg/kg) 1 h before intraperitoneal administration 10 ml/kg of 1 % acetic acid. Five minutes after the acetic acid administration, the numbers of writhing episodes were counted for 10 min, and the percentage of inhibition was subsequently calculated.

COc1ccc(C=C2Oc3ccccc3C2=O)cc1OC [WE-4, 2-(3,4-dimethoxybenzylidene)benzofuran-3(2H)-one]
percentage inhibition of paw licking, Phase I ([1]; initial phase): 49.97% | percentage inhibition of paw licking, Phase II ([1]; late phase): 70.93% and 70.96% | number of formalin-induced paw licking, Phase II ([1]; late phase, control 55.81 ± 3.29): 16.22 ± 1.86 | percent analgesic effect (inhibition of writhing) ([2]; 10 mg/kg oral): 71.30% | number of writhing ([2]; 10 mg/kg oral): 17.57 ± 1.94 | percent analgesic effect (inhibition of writhing) ([2]; 20 mg/kg oral): 77.60% | number of writhing ([2]; 20 mg/kg oral): 13.71 ± 1.77
